Consider five molecules from article PMC11195995, “A homogeneous time-resolved fluorescence screen to identify SIRT2 deacetylase and defatty-acylase inhibitors” (PLOS ONE, 2024).

Data set [1] addresses T1, SIRT2 (Homo sapiens, UniProt Q8IXJ6).
T1 sequence (Q8IXJ6 34-356): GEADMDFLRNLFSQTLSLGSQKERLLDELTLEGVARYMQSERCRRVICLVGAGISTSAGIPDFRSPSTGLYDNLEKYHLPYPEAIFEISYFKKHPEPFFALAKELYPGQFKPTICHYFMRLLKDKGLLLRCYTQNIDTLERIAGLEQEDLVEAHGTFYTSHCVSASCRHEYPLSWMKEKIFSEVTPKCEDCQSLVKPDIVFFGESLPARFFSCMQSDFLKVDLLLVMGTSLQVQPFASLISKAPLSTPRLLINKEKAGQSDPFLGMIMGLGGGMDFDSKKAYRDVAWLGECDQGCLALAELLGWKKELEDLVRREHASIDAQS
The settings on record: read-out: IC50 for SIRT2 demyristoylase activity; cited from earlier work.

For data set [2], the target named is T1, SIRT2. The settings on record: cited from earlier work.
For data set [3], the target named is T2, human SIRT2 catalytic domain (6xHis-SUMO-SIRT2) (Homo sapiens, UniProt Q8IXJ6).
T2 sequence (Q8IXJ6 34-356): T1 sequence (Q8IXJ6 34-356)
Kind of data set: biochemical.

Data set [4] deals with T2, human SIRT2 catalytic domain (6xHis-SUMO-SIRT2). Put plainly: SIRT2—myristoyl-peptide HTRF binding assay (displacement of FAM-myristoyl-H4K16 peptide). Conditions: at the highest ligand concentrations.
In data set [5] the target is SIRT2—decanoyl peptide complex. On the set-up: method as in PMID 32941003. The settings on record: cited from earlier work.
In data set [6] the target is T1, SIRT2. Conditions: read-out: Deacetylase IC50; previously published; cited from earlier work.
The target of data set [7] is T1, SIRT2. Kind of data set: 1-aminoanthracene binding competition assay, SIRT2 alone. On the procedure: (§1) Competition assays where 1-aminoanthracene was displaced from SIRT2 by 2, 4, 5, and 6 were performed as previously reported where we described its displacement from SIRT2 by 3. The assays were also cuvette-based and performed at 23°C in PBS with 1 mM DTT, and the final DMSO concentration was 0.6%. Briefly, the fluorescence intensity of 100 nM 1-aminoanthracene was measured in the presence of 4 μM SIRT2 and increasing amounts of ligand using excitation/emission wavelengths of 390 nm/520 nm. As previously described, displacement of 1-aminoanthracene from SIRT2 by a competitor results in a reduction of its fluorescence.
We determined and report absolute IC50 values from the curves which reflect ligand concentrations that reduce the fluorescence by 50% compared to control (no ligand) samples.

Data set [8] has as its target SIRT2—decanoyl-peptide complex (Homo sapiens, UniProt Q8IXJ6). Put plainly: 1-aminoanthracene binding competition assay, SIRT2—decanoyl-peptide complex. On the procedure: as §1
(§2) The data from both competition assays show a reduction in probe fluorescence at increasing concentrations of competitor ligands. […] We determined and report absolute IC50 values from the curves which reflect ligand concentrations that reduce the fluorescence by 50% compared to control (no ligand) samples.

The target in data set [9] is T1, SIRT2. Put plainly: SIRT2 deacetylase activity assay (MALDI-MS, acetyl-H4K16 peptide). It is filed as biochemical. The procedure:
(§3) The enzymatic activity of SIRT2 was measured using a MALDI-MS—based protocol reported previously. Reactions were performed at 37°C for 2.5 min in PBS containing 1 mM DTT and 1 mM of NAD^+. Acylated H4K16 peptides were used as the substrates at the following concentrations: acetyl-H4K16, 4 μM; decanoyl-H4K16, 0.2 μM; dodecanoyl-H4K16, 0.5 μM; myristoyl-H4K16, 0.5 μM. These concentrations correspond to the enzyme’s Km for each substrate under saturating NAD^+ conditions. The enzyme concentration in each reaction was chosen such that 20% or less of the substrate was processed by the enzyme when the reactions were quenched. In dose-response assays showing a reduction in SIRT2 activity by increasing amounts of ligand, the data was fit with standard sigmoidal dose-response curves as we previously described. We report absolute IC50 values from the curves which reflect ligand concentrations that reduce the activity of the enzyme by 50% compared to control (no ligand) samples. Assays measuring the effects of ligand on SIRT1 deacetylase and SIRT6 demyristoylase activities were performed similarly, as previously described.

Data set [10] addresses T1, SIRT2. Kind of data set: SIRT2 demyristoylase activity assay (MALDI-MS, myristoyl-H4K16 peptide). The format is biochemical. On the procedure: as §3
In data set [11] the target is T1, SIRT2. Put plainly: Intact protein MALDI-MS for covalent adduct on SIRT2. The settings on record: 100 μM ligand, 10 μM SIRT2, 37°C, 30 minutes. The procedure: (A) MALDI-MS spectra of 10 μM SIRT2 after incubation in PBS with 1% DMSO at 37°C for 30 minutes. (B) MALDI-MS spectra of 10 μM SIRT2 after incubation with 100 μM of 2 in PBS with 1% DMSO at 37°C for 30 minutes. The predicted monoisotopic mass for this SIRT2 protein was 36552 Da, and the predicted average mass was 36576 Da; thus, the main peaks represented +1 ions in the isotopic cluster. […] The intact protein spectra were acquired with a Bruker microflex instrument in linear, positive ion mode using sinapinic acid as the matrix. Sinapinic acid was dissolved in 50% acetonitrile/50% water with 0.1% trifluoroacetic acid, which was also used to dilute protein prior to spotting on the MALDI plate. (TIFF)

For data set [12], the target named is T1, SIRT2. Kind of data set: SIRT2 binding competition assay using Cy3-myristoyl-H4K16 peptide. The procedure:
Competition assays where Cy3-myristoyl-H4K16 peptide was displaced from SIRT2 by 1 were performed as previously described. Assays were performed in PBS with 1 mM DTT at 23°C in a quartz microcuvette (160 μl assay volume). Briefly, the fluorescence intensity of 50 nM Cy3-myristoyl-H4K16 peptide was measured in the presence of 2.5 μM SIRT2 and increasing amounts of 1 using excitation/emission wavelengths of 535 nm/560 nm. The final DMSO concentration in each measurement was 0.6%. As previously described, displacement of Cy3-myristoyl-H4K16 peptide from SIRT2 by a competitive ligand results in a reduction of its fluorescence.
as §2

In data set [13] the target is T1, SIRT2. Kind of data set: SIRT2 de-decanoylase activity assay (MALDI-MS, decanoyl-H4K16 peptide). It is filed as biochemical. Conditions: 0.2 μM decanoyl-H4K16, 1 mM NAD+. On the procedure:
as §3

Data set [14] deals with T1, SIRT2. Put plainly: SIRT2 de-dodecanoylase activity assay (MALDI-MS, dodecanoyl-H4K16 peptide). It is filed as biochemical. Conditions: 0.5 μM dodecanoyl-H4K16, 1 mM NAD+. The procedure: as §3
A further data set addresses T3, SIRT1 (Homo sapiens, UniProt Q96EB6).
T3 sequence (Q96EB6 1-747): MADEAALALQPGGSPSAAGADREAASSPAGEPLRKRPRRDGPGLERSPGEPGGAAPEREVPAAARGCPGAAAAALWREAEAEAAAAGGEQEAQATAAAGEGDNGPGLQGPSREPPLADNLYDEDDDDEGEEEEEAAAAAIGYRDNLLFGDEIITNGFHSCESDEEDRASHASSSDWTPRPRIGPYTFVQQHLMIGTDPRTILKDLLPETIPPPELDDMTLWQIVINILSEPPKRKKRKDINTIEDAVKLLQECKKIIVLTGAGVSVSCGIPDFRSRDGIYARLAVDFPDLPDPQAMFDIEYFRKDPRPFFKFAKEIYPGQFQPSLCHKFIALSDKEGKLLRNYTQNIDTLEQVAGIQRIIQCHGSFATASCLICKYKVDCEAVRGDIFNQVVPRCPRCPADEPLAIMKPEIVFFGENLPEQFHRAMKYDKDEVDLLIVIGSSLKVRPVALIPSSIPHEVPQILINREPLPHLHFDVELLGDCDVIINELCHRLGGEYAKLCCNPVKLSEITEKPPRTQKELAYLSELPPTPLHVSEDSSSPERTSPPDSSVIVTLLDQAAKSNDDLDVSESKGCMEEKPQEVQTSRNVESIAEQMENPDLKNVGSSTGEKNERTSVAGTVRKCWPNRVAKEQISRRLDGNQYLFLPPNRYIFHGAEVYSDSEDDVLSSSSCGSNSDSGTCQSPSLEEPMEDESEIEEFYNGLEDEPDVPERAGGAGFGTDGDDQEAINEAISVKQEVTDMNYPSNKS
Put plainly: SIRT1 deacetylase activity assay. It is filed as biochemical. Conditions: 1 μM acetyl-H4K16. The procedure: as §3

Another data set addresses SIRT6 (Homo sapiens, UniProt Q8N6T7). Kind of data set: SIRT6 demyristoylase activity assay. The format is biochemical. Conditions: 16 μM myristoyl-H4K16, dose-response. The procedure: as §3
Data set [15] concerns acetylated alpha-tubulin in A549 cells. Put plainly: Immunofluorescence staining of acetylated alpha-tubulin in A549 cells. The format is cell-based, human. Conditions: 100 μM, 6 hours. The procedure:
100,000 A549 or A549 SIRT2-KO cells were seeded on a coverslip that was placed in the well of 6-well plate, and the cells were grown overnight in full DMEM. […] The cells were then washed three times with PBS, fixed with 4% paraformaldehyde for 10 min, then washed again three times with PBS. Cells were incubated with 0.2% Triton X-100 for 15 minutes on a shaker followed by three more PBS washes. The cells were then blocked with 2% BSA in PBS for 1 hour at room temperature. […] Slides were imaged using a Keyence BZ-X710 fluorescence microscope with the following filter settings: DAPI, excitation/emission was 300–400 nm/438-484 nm; Alexa Fluor 488, excitation/emission was 448 nm/500-550 nm. All images were obtained under identical conditions, and fluorescence intensities were quantified using Fiji/ImageJ without any manipulation to the images. The fluorescence intensity from at least six cells per coverslip were randomly selected and measured targeting the cytosol (for measuring acetylated alpha-tubulin levels via Alexa Fluor 488) or the nucleus (for measuring nuclear DNA staining via DAPI). Relative fluorescence intensity was calculated as the ratio of Alexa Fluor 488/DAPI intensities. […]

In data set [16] the test system is acetylated alpha-tubulin in A549 SIRT2-KO cells. Kind of data set: Immunofluorescence staining of acetylated alpha-tubulin in A549 SIRT2-KO cells. The settings on record: 100 μM, 6 hours. It is filed as cell-based, human.
The subject of a further data set is A549 cells. Kind of data set: Cell viability MTT assay. The format is cell-based, human. The settings on record: 72 hours treatment, concentrations shown in Fig 4F and 4G. The procedure:
5,000 A549 cells were seeded in a 96-well plate in full DMEM. The total volume in each well was 150 μl, and the DMSO concentration was 0.7%. After this treatment period, 10 μl of MTT reagent was added to each well, then the cells were cultured for 4 hour before adding 100 μl of crystal dissolving solution for another 16 hour incubation (Cayman Chemical, catalog #10009365). The absorbance in each well was measured at 570 nm and was used to determine the cell viability by comparing the absorbance of drug treated cells to control (DMSO treated) cells.

Data set [17] concerns the target T2, human SIRT2 catalytic domain (6xHis-SUMO-SIRT2).

Entries after “also recorded” stand apart in the source; their conditions may differ. Like-named read-outs stand apart in the source and are kept apart here.

Chain of SIRT6 (Q8N6T7 whole entry): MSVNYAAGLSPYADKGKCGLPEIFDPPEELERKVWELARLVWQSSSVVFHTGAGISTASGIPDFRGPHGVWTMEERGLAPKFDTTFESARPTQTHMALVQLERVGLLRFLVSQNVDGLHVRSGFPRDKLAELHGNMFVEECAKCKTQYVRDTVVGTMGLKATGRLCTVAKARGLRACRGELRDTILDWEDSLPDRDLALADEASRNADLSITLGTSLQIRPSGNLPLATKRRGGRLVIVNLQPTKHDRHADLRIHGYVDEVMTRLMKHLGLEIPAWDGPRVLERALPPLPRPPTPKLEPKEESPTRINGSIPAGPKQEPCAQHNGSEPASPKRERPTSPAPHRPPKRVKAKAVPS

Broadly, the IC50 is the point on the concentration scale where inhibition reaches its midpoint. What is called Kd is the equilibrium constant for the complex coming apart. In the case of `CCCCCCCCCCCCCCCC(=O)OC[C@H](O)[C@H]1OC(=O)C(O)=C1O` [ascorbyl palmitate], the IC50 at SIRT2 [1] is 8 to 23 µM; in [3], 2 µM. In addition, the Kd on SIRT2 [2] (read-out: published Kd for SIRT2) was 3 to 5 µM. Besides, in data set [4], the “maximum reduction of HTRF FRET signal (displacement of FAM-myristoyl-H4K16 peptide)” value was ~ 40%.

For `CC(C)c1cccc(C(C)C)c1O` [compound 3, 2-6-diisopropylphenol], the values for the IC50 on SIRT2 [1] and on SIRT2 [6] were 195 µM and 140 µM, respectively. For the same molecule, the Kd on SIRT2 [2] (read-out: Kd for SIRT2 alone) was 25 µM; in [5], 7 µM.

`Oc1ccc(Br)cc1I` [compound 2, 4-bromo-2-iodophenol]: the IC50 came to 75 µM at SIRT2 [7] (SIRT2 only, 100 nM 1-aminoanthracene, 4 μM SIRT2); 7 µM in data set [8] (SIRT2-decanoyl peptide complex, 100 nM 1-aminoanthracene, 4 μM SIRT2, 10 μM decanoyl-H4K16 peptide); 9 µM on SIRT2 [9]. Besides, the Kd on SIRT2 [7] (read-out: SIRT2 Kd) is 68 µM; in data set [8], 3 µM. In addition, in data set [8] (stronger for the complex), the “affinity for SIRT2—decanoyl-peptide complex compared to SIRT2 alone” value was 23 fold. For the same molecule, at SIRT2 [10] (0.5 μM myristoyl-H4K16, 1 mM NAD+, 37°C, absolute IC50, "no effect" = 200 μM compound did not significantly affect SIRT2 activity), the “Demyristoylase IC50” value is given as “no effect”. Besides, on SIRT2 [11], the “covalent reaction with SIRT2 (intact protein mass spectrometry)” value is “does not irreversibly attach to SIRT2 or form any type of covalent adduct; also recorded: does not covalently react with SIRT2”.

With `O=c1/c(=C\c2cc(Br)cc(I)c2O)sc2nc3ccccc3n12` [compound 1], the IC50 on SIRT2 [12] (50 nM Cy3 peptide, 2.5 μM SIRT2, 23°C, read-out: IC50 for displacement of Cy3-myristoyl-H4K16 peptide from SIRT2) was 16 µM; against SIRT2 [9], 7 µM; at SIRT2 [13] it was 8 µM; at SIRT2 [14] it was 39 µM; against SIRT2 [10], 37 µM; against SIRT1 it was 32 µM. In data set [3], this molecule registered an IC50 of 6.92 µM. For the same molecule, the Kd on SIRT2 [12] (calculated from IC50 of Cy3-myristoyl-H4K16 peptide competition assay) was 5 µM. Also, at SIRT2 [10] (50 μM compound), the “effect on the demyristoylase activity of SIRT2” value is “considerably most effective”. Besides, on SIRT6, the “effect on the demyristoylase activity of SIRT6” value is listed as “no effect”. For the same molecule, the “level of acetylated alpha-tubulin (immunofluorescence)” value is “significantly increased; also recorded: enhanced fluorescence” in data set [15] and “no effect” in [16]. The “viability / toxicity in A549 cells (MTT)” value with A549 cells is recorded as “did not cause toxicity; also recorded: no effect”.

Take `COc1ccc(NC(=O)c2ccc3c(SCC(=O)O)c4c(nc3c2)CCCC4)c(OC)c1` [C598-0017]: in [17], 6.34 µM corresponded to half-maximal inhibition (IC50).
